# Tests used:
# fractalkine protein = assay: Western blot analysis of fractalkine protein in HUVECs; assay type: cell-based, human
# Experimental: (§1) Recombinant human TNF-α was purchased from R&D Systems (Minneapolis, Minn.). Anti-fractalkine antibody was purchased from Torrey Pines BioLabs (Houston, Tex.). LPS was purchased from Sigma-Aldrich (St. Louis, Mo.). LA (Thioctacid 600®) was obtained from VIATRIS GmbH & Co. KG (Frankfurt, Germany). Calcein-AM was purchased from Molecular Probe (Eugene, Oreg.). Media, sera, and other biochemical reagents were purchased from Sigma-Aldrich, unless otherwise specified. HUVECs were prepared from human umbilical cords by collagenase digestion as previously described (Kim W et al., FASEB J. 2003 17: 1337-19395. Homogeneity of endothelial cells in cultures was confirmed by the presence of factor VIII using immunofluorescence method. HUVECs were maintained in M-199 medium supplemented with 20% (vol/vol) fetal bovine serum at 37° C. in a 5% CO2atmosphere. The primary cultured cells used in this study were between 2 and 4 passages.
# Western blot analyses were performed as previously described (Aim S Y et al., Am J Pathol 2004 164: 1663-1672). Samples were mixed with sample buffer, boiled for 10 minutes, separated by SDS-PAGE electrotransfered to nitrocellulose membranes. The nitrocellulose membranes were blocked by incubation in blocking buffer, incubated with anti-fractalkine monoclonal antibody, washed, and incubated with horseradish peroxidase-conjugated secondary antibody. […]
# [1] = tested on: fractalkine expression in rat small intestine; assay: Immunohistochemical analysis of fractalkine expression in small intestine of LPS-induced endotoxemia rats; assay type: in vivo; conditions: LA pretreatment before LPS, 12 hours, FIGS. 7a, 7b
# Experimental: (§2) Inbred male Sprague-Dawley rats (150-200 g) were obtained from Orient (Charles River Korea, Seoul, Korea) and were maintained on standard laboratory chow and water ad libitum. All animal studies were reviewed and approved by the Institutional Animal Care and Use Committee of Chonbuk National University Medical School. The rats (180-220 g) were divided into 3 groups; control (n=6), LPS (10 mg/kg) (n=6), and LPS (10 mg/kg) plus LA (10 mg/kg/day) (n=6). Control buffer and LPS were injected intravenously through the tail vein. LA was injected intraperitoneally once per day for three days prior to LPS administration. At 12 hours postinjection of vehicle or LPS, rats were anesthetized with ketamine (100 mg/kg) and xylazine (10 mg/kg), and subsequently sacrificed by cervical dislocation. Heart and jejunum were harvested for RNase protection assay, Western blot, and immunohistochemistry.
# (§3) After sacrifice, the hearts and jejunums were quickly excised, rinsed with PBS, and frozen in OCT in methyl-butane on dry ice. Frozen tissue blocks were sectioned at […], and 8-12 sections of heart or jejunum from each rat were incubated with anti-fractalkine antibody at 4 C overnight. […] Fractalkine expression was semi-quantitated by grading the degree of immunostaining (very strong=5, strong=4, moderate=3, weak=2, none=1). […]
# SP-1 = assay: EMSA for SP-1 binding activity in nuclear extracts of HUVECs; conditions: FIG. 5b
# Experimental: Briefly, the cells were lysed in a hypotonic buffer (10 mmol/L HEPES, pH 7.9, 1.5 mmol/L MgCl2, 10 mmol/L KCl, 0.5 mmol/L DTT, 0.5 mmol/L PMSF) containing 0.6% NP-40 and centrifuged at 4000 rpm for 15 min. […] Seventy five microliter of storage buffer (20 mmol/L HEPES, pH7.9, 100 mmol/L NaCl, 20% glycerol, 0.2 mmol/L EDTA, 0.5 mmol/L PMSF, 0.5 mmol/L DTT) was added, agitated for 10 sec by vortexing, and centrifused at 14,000 rpm for 20 min. […] EMSA for SP-1 protein was performed with biotin-labeled SP-1 binding site oligomer 5′-[sequence]
# [2] = tested on: fractalkine expression in rat heart; assay: Immunohistochemical analysis of fractalkine expression in heart of LPS-induced endotoxemia rats; assay type: in vivo; conditions: LA 10 mg/kg/day for 3 days before LPS 10 mg/kg i.v., 12 hours
# Experimental: as §2, §3
# NF-κB (p65/p50) = assay: EMSA for NF-κB binding activity in nuclear extracts of HUVECs; assay type: cell-based, human
# Experimental: EMSA for NF-κB proteins was performed as previously described (Kim I et al., J Biol Chem 2001 276: 7614-7620). Briefly, the cells were lysed in a hypotonic buffer (10 mmol/L HEPES, pH 7.9, 1.5 mmol/L MgCl2, 10 mmol/L KCl, 0.5 mmol/L DTT, 0.5 mmol/L PMSF) containing 0.6% NP-40 and centrifuged at 4000 rpm for 15 min. The pellet was lysed in […] of a high salt buffer (20 mmol/L HEPES, pH 7.9, 420 mmol/L NaCl, 25% glycerol, 1.5 mmol/L MgCl2, 0.2 mmol/L EDTA, 0.5 mmol/L PMSF, 0.5 mmol/L DTT) for 20 min on ice. Seventy five microliter of storage buffer (20 mmol/L HEPES, pH7.9, 100 mmol/L NaCl, 20% glycerol, 0.2 mmol/L EDTA, 0.5 mmol/L PMSF, 0.5 mmol/L DTT) was added, agitated for 10 sec by vortexing, and centrifused at 14,000 rpm for 20 min. Nuclear extracts ([…]) were incubated with approximately 20,000 cpm of ^32P-labeled NF-κB binding site oligomer 5′-[…]-3′ (SEQ ID NO: 1) (Santa Cruz Biotechnology, Santa Cruz, Calif.) for […] at 20 C. EMSA for SP-1 protein was performed with biotin-labeled SP-1 binding site oligomer 5′-[…] (SEQ ID NO: 2) and signals were detected by chemiluminescent imaging according to the manufacturer's protocol (EMSA Gel-Shift. Kit; Panomics, Redwood City, Calif.).
# We previously reported that NF-κB is involved in TNF-α induced fractalkine expression in HUVECs (Ahn S Y et al., Am J Pathol 2004 164: 1663-1672). […]
# serum IL-1β = assay: Serum IL-1β by ELISA after intravenous LPS in rats; assay type: in vivo, rat; conditions: for serum level of IL-1β: rats, LPS 10 mg/kg intravenous by tail vein
# Experimental: (§4) Blood samples (0.5 ml) were taken from rats at 0, 1, 2, 3, and 4 hours after the administration of LPS (10 mg/kg) or vehicle. Serum concentrations of TNF-α and IL-1β were determined by using ELISA kits (Endogen, Woburn, Mass.).
# (§5) Serum concentrations of TNF-α and IL-1β were determined by using Enzyme-Linked Immunosorbent Assay (ELISA) Kits (Endogen, Woburn, Mass.). […] Thus, we used TNF-α- and IL-1β in this experiment.
# as §2
# [3] = tested on: adhesion of monocytes to HUVECs; assay: Monocyte adhesion assay on HUVECs; assay type: cell-based, human; conditions: for increase in the adhesion of monocytes compared to treatment with control buffer: stimulation of HUVECs for 6 hours, TNF-α 10 ng/ml or IL-1β 15 ng/ml
# Description: Human peripheral blood monocytes were isolated from fresh blood of healthy volunteers by Ficoll-Paque gradient centrifugation. The study protocol and informed consent forms were approved by the Chonbuk. National University Hospital Review Board. Monocytes were isolated by negative selection using magnetic beads (Miltenyi Biotec, Bergisch Gladbach, Germany) (Ancuta P et al., J Exp Med 2003 197: 1701-1707). The purity of the monocyte fraction was 93-95% as determined by staining with anti-CD14, anti-CD33, anti-CD16b, and anti-CD56 mAbs and FACScan analysis (Becton Dickinson, Franklin Lakes, N.J.). Monocyte-endothelial adhesion was determined by fluorescent labeling of monocytes by a method described previously (Kim W. et al., Arterioscler Thromb Vase Biol 2003 23: 1377-1383). A number of monocytes adhered to HUVECs was expressed as percent calculated by the formula: % signal/total signal).
# fractalkine mRNA = assay: RNase protection assay (RPA) for fractalkine mRNA in HUVECs; assay type: cell-based, human
# Experimental: as §1
# A part of cDNA of human fractalkine (nucleotides 482-893, GenBank accession NM002996) was amplified by PCR and subcloned into pBluescript II KS+ (Stratagene, La Jolla, Calif.). After linearizing with EcoRI, ^32P-labeled antisense RNA probes were synthesized by in vitrotranscription using T7 polymerase (Ambion Maxiscript kit; Ambion, Austin, Tex.) and gel purified. RPA was performed on total RNAs using the Ambion RPA kit (Ambion, Austin, Tex.). An antisense RNA probe of human cyclophilin (nucleotides 135-239, GenBank accession X52856) was used as an internal control for RNA quantification.
# serum TNF-α = assay: Serum TNF-α by ELISA after intravenous LPS in rats; assay type: in vivo, rat; conditions: for serum level of TNF-α: rats, LPS 10 mg/kg intravenous by tail vein
# Experimental: as §4, §5, §2
compound,measurement,setting,value
"O=C(O)CCCCC1CCSS1 (stereo not shown) [LA, 1,2-dithiolane-3-pentanoic acid]",effect on TNF-α- and/or IL-1β-induced expression of fractalkine protein,fractalkine protein,decreased
same,effect on LPS-induced fractalkine expression in arterial endothelial cells and villous endothelium,[1],dramatically suppressed
same,effect on TNF-α- and/or IL-1β-induced SP-1 binding activity,SP-1,decreased
same,effect on basal SP-1 binding activity,SP-1; LA alone,no effect
same,"effect on LPS-induced fractalkine expression in arterial endothelial cells, endocardium, and endocardial surface of cardiac valves",[2],dramatically suppressed
same,effect on basal NF-κB (p65/p50) binding activity,NF-κB (p65/p50); LA alone,no effect
same,effect on TNF-α- and/or IL-1β-induced NF-κB (p65/p50) binding activity,"NF-κB (p65/p50); TNF-α 10 ng/ml and/or IL-1β 15 ng/ml, LA 4 mmol/L, FIG. 5a",suppressed
same,effect on LPS-increased serum IL-1β,"serum IL-1β; rats pretreated with LA, then LPS, FIG. 1b",significantly inhibited
same,decrease in monocyte adhesion to IL-1β-stimulated HUVECs,"[3]; IL-1β 15 ng/ml, FIG. 6a, 6b",76%
same,decrease in monocyte adhesion to TNF-α-stimulated HUVECs,"[3]; TNF-α 10 ng/ml, FIG. 6a, 6b",63%
same,"effect on HUVEC adhesiveness for monocytes, substance alone",[3]; unstimulated HUVECs,no effects
same,suppression of IL-1β-induced expression of fractalkine mRNA,"fractalkine mRNA; IL-1β 15 ng/ml, LA 4 mmol/L, FIG. 4b",70-80%
same,effect on expression of fractalkine mRNA induced by TNF-α and IL-1β together,"fractalkine mRNA; TNF-α 10 ng/ml and IL-1β 15 ng/ml together, FIG. 4c",suppressed
same,suppression of TNF-α-induced expression of fractalkine mRNA,"fractalkine mRNA; TNF-α 10 ng/ml, LA 4 mmol/L, FIG. 4a",70-80%
same,effect on LPS-increased serum TNF-α,"serum TNF-α; rats pretreated with LA, then LPS, FIG. 1a",significantly inhibited
IL-1β: proinflammatory cytokine used to stimulate HUVECs,increase in the adhesion of monocytes compared to treatment with control buffer,[3],4 fold
TNF-α,increase in the adhesion of monocytes compared to treatment with control buffer,[3],5 fold
lipopolysaccharide [LPS],serum level of IL-1β,serum IL-1β; 1 hour after LPS,104 ± 20 pg/mL
same,serum level of IL-1β,serum IL-1β; 2 hours after LPS,232 ± 45 pg/mL
same,serum level of IL-1β,serum IL-1β; 3 hours after LPS,212 ± 19 pg/mL
same,serum level of TNF-α,serum TNF-α; 3 hours after LPS,975 ± 121 pg/mL
same,serum level of TNF-α,serum TNF-α; 4 hours after LPS,0 pg/mL

# — US20080146650A1, “PHARMACEUTICAL COMPOSITION COMPRISING A-LIPOIC ACID FOR INFLAMMATORY DISEASES” (priority 2005, published 2008)
